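Tested at 5 concentrations; 48 h exposure; 96-well plates; endpoints linearly interpolated, else capped at highest concentration. GI50 marks 50% less growth. At the TGI there is no net growth.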

Among the test systems are NCI-H226 lung; SNB-19 CNS; LOX IMVI melanoma; DU-145 prostate; OVCAR-5 ovarian; HOP-62 NSCLC; BT-549 breast; CAKI-1 renal; MALME-3M melanoma; EKVX NSCLC.
Experiment in all cases: growth of human tumour cells (NCI), 48 h

In the case of `FC(F)(F)c1cccc(Nc2nc(-c3ccccc3)nc3ncccc23)c1`, the GI50 was 6.25 µM in the test on NCI-H226 lung; 7.68 µM in the test on SNB-19 CNS; 4.48 µM in the test on LOX IMVI melanoma; 4.72 µM in the test with DU-145 prostate; 13.2 µM in the test on OVCAR-5 ovarian; 7.18 µM in the test on HOP-62 NSCLC. Further, the figures for the GI50 in the test with BT-549 breast, in the test with CAKI-1 renal and with MALME-3M melanoma were 5.52 µM, 3.86 µM and 5.63 µM, respectively. The TGI with NCI-H226 lung was determined as 35.6 µM; in the test with SNB-19 CNS, 37.3 µM; with LOX IMVI melanoma it was 24.6 µM; in the test on DU-145 prostate, 21.8 µM; in the test with OVCAR-5 ovarian, 90.4 µM; in the test on HOP-62 NSCLC it was 22.2 µM. Also, the TGI with BT-549 breast turned out to be 30.6 µM; with CAKI-1 renal, 18.7 µM; in the test on MALME-3M melanoma, 28.7 µM.

With `Nc1nc(-n2c(-c3ccccc3)nc3c(Br)cc(Br)cc3c2=O)nnc1-c1cccc(Cl)c1Cl`, the GI50 with NCI-H226 lung is 24.1 µM; with SNB-19 CNS, 29.9 µM; in the test with LOX IMVI melanoma, 4.06 µM; in the test on DU-145 prostate, 27.3 µM; with EKVX NSCLC, 20.2 µM; in the test with OVCAR-5 ovarian it was 6.22 µM. In addition, the GI50 in the test with HOP-62 NSCLC was 2.84 µM; with BT-549 breast, 19.1 µM; in the test with CAKI-1 renal it was 17 µM. Further, the TGI in the test on NCI-H226 lung was over 100 µM; with SNB-19 CNS, over 100 µM; with LOX IMVI melanoma, 37.2 µM; with DU-145 prostate it was over 100 µM; in the test with EKVX NSCLC, over 100 µM; with OVCAR-5 ovarian it was 50.9 µM. Moreover, the values for the TGI in the test with HOP-62 NSCLC, with BT-549 breast and in the test with CAKI-1 renal were 9.8 µM, over 100 µM and over 100 µM, respectively.

Regarding `O=C1NC(=NCCc2cccc(F)c2)S/C1=C\c1ccc2ncccc2c1`, the GI50 in the test on NCI-H226 lung is over 12.9 µM; with SNB-19 CNS, 14.1 µM; in the test with LOX IMVI melanoma, 1.75 µM; with DU-145 prostate, 10.1 µM; with OVCAR-5 ovarian, over 25 µM; with HOP-62 NSCLC it was 2.15 µM. In addition, the GI50 in the test with BT-549 breast is 10.6 µM; in the test on CAKI-1 renal, 2.43 µM; with MALME-3M melanoma, 17.2 µM. For the same compound, the TGI with NCI-H226 lung, with SNB-19 CNS, with LOX IMVI melanoma, in the test on DU-145 prostate, in the test with OVCAR-5 ovarian and with HOP-62 NSCLC was over 25 µM each time. In addition, the TGI in the test with BT-549 breast, in the test with CAKI-1 renal and in the test with MALME-3M melanoma was over 25 µM each time.

As to `CC1CCc2nc[nH]c(=O)c21` (centres undefined), the GI50 in the test with NCI-H226 lung, with SNB-19 CNS, in the test on LOX IMVI melanoma, in the test on DU-145 prostate, in the test on OVCAR-5 ovarian and with HOP-62 NSCLC was over 100 µM in each case. Further, the GI50 in the test with BT-549 breast, in the test on CAKI-1 renal and in the test with MALME-3M melanoma was over 100 µM in each case. Moreover, the TGI in the test with NCI-H226 lung, with SNB-19 CNS, with LOX IMVI melanoma, with DU-145 prostate, in the test on OVCAR-5 ovarian and in the test on HOP-62 NSCLC was over 100 µM throughout. In addition, the TGI with BT-549 breast, in the test with CAKI-1 renal and in the test with MALME-3M melanoma was over 100 µM each time.

Turning to `Cc1nc2sccn2c1-c1csc(Nc2ccccc2Cl)n1`, the GI50 in the test with NCI-H226 lung was 3.38 µM; with SNB-19 CNS, 10.3 µM; in the test with LOX IMVI melanoma it was 4.4 µM; in the test with DU-145 prostate, 7.87 µM; in the test with OVCAR-5 ovarian, 9.58 µM; in the test on HOP-62 NSCLC it was 4.75 µM. Moreover, the values for the GI50 in the test on BT-549 breast, with CAKI-1 renal and in the test with MALME-3M melanoma were 3.6 µM, 3.06 µM and 3.55 µM, respectively. Further, the TGI was 45.1 µM in the test with NCI-H226 lung; over 100 µM with SNB-19 CNS; 21.6 µM with LOX IMVI melanoma; 68.8 µM in the test with DU-145 prostate; 75.1 µM with OVCAR-5 ovarian; 70.5 µM in the test on HOP-62 NSCLC. In addition, the TGI is 23.4 µM in the test with BT-549 breast, 40.7 µM in the test on CAKI-1 renal and 22.1 µM with MALME-3M melanoma.

For `O=C(CCNC12CC3CC(CC(C3)C1)C2)c1ccccc1`, the TGI with NCI-H226 lung is over 100 µM; in the test on SNB-19 CNS, over 100 µM; in the test with DU-145 prostate, over 100 µM; in the test on OVCAR-5 ovarian, 71.7 µM; with BT-549 breast, 85.3 µM; with MALME-3M melanoma, 32.1 µM.

As to `Nc1c(C(=O)c2cccc(CCS(N)(=O)=O)c2)cnn1-c1ccc(F)cc1`, the GI50 in the test with NCI-H226 lung was over 19.7 µM; in the test with SNB-19 CNS, over 25 µM; with LOX IMVI melanoma it was over 25 µM; in the test with DU-145 prostate, over 25 µM; with OVCAR-5 ovarian, over 25 µM; in the test on HOP-62 NSCLC it was over 25 µM. Moreover, the GI50 in the test on BT-549 breast, with CAKI-1 renal and with MALME-3M melanoma was over 25 µM in each case. Besides, the TGI with NCI-H226 lung, with SNB-19 CNS, with LOX IMVI melanoma, in the test on DU-145 prostate, in the test on OVCAR-5 ovarian and in the test with HOP-62 NSCLC was over 25 µM each time. Moreover, the TGI with BT-549 breast, with CAKI-1 renal and in the test with MALME-3M melanoma was over 25 µM each time.

The record behind these values is PubChem BioAssay (NCI).
